{"source": "patent US5079228A", "about": "“Peptide inhibitors of neutrophil activating factor induced chemotaxis” (Board of Regents, The University of Texas System, priority 1990, dated 1992)", "key": {"neutrophil chemotaxis": {"test_system": "neutrophil chemotaxis", "conditions": "Tanaka et al.; cited from earlier work"}, "human neutrophils": {"test_system": "human neutrophils", "test": "Neutrophil chemotaxis, leading front method in blind well chamber (chemotactic activity of the peptide itself)", "assay_type": "cell-based", "conditions": "for DISTANCE MOVED (% of control): control = RPMI-1640; for effect on cell migration (in words): peptide concentration of 1×10^-9 M, FIG. 1", "protocol": "Each of the peptides was assayed for its ability to induce the directed migration of neutrophils towards itself. […] The distances migrated by the cells, under the influence of the various peptides, was therefore expressed as a percentage of the distance travelled in RPMI tissue culture medium alone. In the first experiments the effect of native NAF on the cells was compared to that of FMLP (FIG. I). […] None of the synthetic peptides induced chemotaxis either alone or in combination with one another when the synthetic peptides were examined under the same conditions (FIG. 2).\n(§1) Human blood was anticoagulated with heparin.\n(§2) Chemotaxis was performed using the leading front method as described by Zigmond and Hirsch.^21 The test material was placed in the lower well of a blind well chemotaxis chamber.^22 A five micron pore size, and 100 μl aliquot of the neutrophil preparation (1×10^6 cells/ml) in RPMI-1640 containing 1% albumin was added to the top of the filter and incubated at 37° C. for 30 min. (In some experiments neutrophils were pre-incubated in the presence of peptide for 10 min at room temperature before being added to the upper chamber.) The filter was then fixed and stained and mounted on a glass microscope slide. The leading front was determined by the position of the leading two cells. The distance that the leading two cells had moved through the filter was measured for six fields on each filter. The measurements were made with two filters for each set of conditions."}, "[1]": {"test_system": "cytochalasin B primed neutrophils", "test": "Enzyme release from neutrophils (β-D-glucuronidase, microtiter plate)", "assay_type": "cell-based, human", "conditions": "37° C., 30 min, FIG. 3", "protocol": "Neutrophil enzyme release was measured by a modification of the method of Goldstein and colleagues.^23 Cytochalasin B (Sigma Chemical Co., St. Louis, Mo.) was stored in dimethylsulphoxide at a concentration of 5 mg/ml and diluted to a concentration of 100 μg/ml in Hanks' balanced salt solution (HBSS) immediately before use. Neutrophils were prepared as described and incubated at a cell density of 5×10^6 cells/ml for ten minutes at room temperature in the presence of Cytochalasin B (10 μg/ml). Aliquots of 100 μl of the primed cell suspension were then distributed into the wells of a 96-well microtiter plate and 100 μl of stimulant was added. The cells were then incubated at 37° C. for 30 min. The plates were centrifuged at 850 rpm for 5 min, and 100 μl of supernatant was removed. The supernatants were assayed for β-D-glucuronidase activity.\nThe ability of native NAF and the synthetic peptides to induce the release of β-D-glucuronidase from cytochalasin B primed neutrophils was examined using a microtiter plate technique. […]\nβ-D-glucuronidase was measured by determining the change in absorbance of phenolphthalein β-D-glucuronide (Sigma Chemical Co.) at 540 nm by the method of Gianetto and DeDuve.^24 The results were expressed as picomoles of substrate hydrolysed per hour."}, "[2]": {"test_system": "Neutrophil activating factor induced human neutrophil chemotaxis", "test": "Inhibition of NAF-induced neutrophil chemotaxis", "assay_type": "cell-based", "description": "(§3) The peptides were examined to determine if any of the peptides could block the action of the native molecule. In these experiments the attractant in the lower well of the Boyden chamber contained both native NAF (1×10^-8 M) and one or more synthetic peptide(s) (1×10^-6 M) Table 2. The migration of the cells in RPMI tissue culture medium alone, or under the influence of native NAF or the individual peptides was also examined in each experiment. […] The mean migration of native NAF was an average of 79% (S.D.=3) above that of buffer alone, while the mean migration towards native NAF in the presence of NAF (3-25) was 32% (S.D.=10) and the mean migration towards native NAF in the presence of NAF (44-72) (S.D.=13) was 52% above control migration (Table 2). These reductions are statistically significant at p<0.002 by Student's t test. These two peptides inhibited NAF induced migration by 59 and 34% respectively. When NAF was incubated in the presence of both peptides the mean migration towards native NAF was 24% (S.D.=3) above controls for a total inhibition of NAF activity of 70%. Therefore, the inhibitory effects of the peptides were approximately additive.\nas §1, §2"}, "[3]": {"test_system": "chemotaxis induced by FMLP", "test": "Specificity: effect on FMLP-induced neutrophil chemotaxis", "assay_type": "cell-based, human", "conditions": "FMLP 5 × 10^-9 M plus peptide 1 × 10^-6 M", "description": "as §3, with “These two peptides inhibited NAF induced migration by 59 and 34% respectively. When NAF was incubated in the presence of both peptides the mean migration towards native NAF was 24% (S.D.=3) above controls for a total inhibition of NAF activity of 70%. Therefore, the inhibitory effects of the peptides were approximately additive.” left out\nChemotaxis was performed using the leading front method as described by Zigmond and Hirsch.^21 The test material was placed in the lower well of a blind well chemotaxis chamber.^22 A five micron pore size, and 100 μl aliquot of the neutrophil preparation (1×10^6 cells/ml) in RPMI-1640 containing 1% albumin was added to the top of the filter and incubated at 37° C. for 30 min. […] The leading front was determined by the position of the leading two cells. The distance that the leading two cells had moved through the filter was measured for six fields on each filter. […]"}, "[4]": {"conditions": "NAF 1 × 10^-8 M plus peptide 1 × 10^-6 M in lower well"}, "[5]": {"conditions": "NAF 1 × 10^-8 M, neutrophils preincubated with peptide 1 × 10^-6 M (10 min, room temperature)"}}, "note": "“Also recorded” adds a separate entry of the source."}
{"substance": "(30-72): peptide of Tanaka et al. corresponding to residues (30-72) of the NAF sequence (LRVIESGPHCANTEIIVKLSDGRELCLDPKENWVQRVVEKFLK; Interleukin-8; UniProt P10145 52-94, looked up, fragment)", "values": [{"measurement": "chemotactic activity (in words)", "setting": "neutrophil chemotaxis", "value": "inactive"}, {"measurement": "inhibition of chemotaxis (in words)", "setting": "neutrophil chemotaxis", "value": "did not find that any of their synthetic peptides inhibited chemotaxis"}]}
{"substance": "(7-37): peptide of Tanaka et al. corresponding to residues (7-37) of the NAF sequence (AKELRCQCIKTYSKPFHPKFIKELRVIESGP; Interleukin-8; UniProt P10145 29-59, looked up, fragment)", "values": [{"measurement": "chemotactic activity (in words)", "setting": "neutrophil chemotaxis", "value": "inactive"}, {"measurement": "inhibition of chemotaxis (in words)", "setting": "neutrophil chemotaxis", "value": "did not find that any of their synthetic peptides inhibited chemotaxis"}]}
{"substance": "(17-37): peptide of Tanaka et al. corresponding to residues (17-37) of the NAF sequence (TYSKPFHPKFIKELRVIESGP; Interleukin-8; UniProt P10145 39-59, looked up, fragment)", "values": [{"measurement": "chemotactic activity (in words)", "setting": "neutrophil chemotaxis", "value": "inactive"}, {"measurement": "inhibition of chemotaxis (in words)", "setting": "neutrophil chemotaxis", "value": "did not find that any of their synthetic peptides inhibited chemotaxis"}]}
{"substance": "Neutrophil activating factor [NAF]", "values": [{"measurement": "DISTANCE MOVED (% of control)", "setting": "human neutrophils; NAF alone, 1 × 10^-8 M", "value": "179 ± 3 % of control"}, {"measurement": "mean migration above that of buffer alone", "setting": "human neutrophils; native NAF 1 × 10^-8 M", "value": 79, "unit": "%"}, {"measurement": "effect on cell migration (in words)", "setting": "human neutrophils", "value": "increase the cell migration"}, {"measurement": "release of β-D-glucuronidase from neutrophils (in words)", "setting": "[1]", "value": "Neither NAF nor any of the synthetic peptides caused the cells to degranulate; also recorded: failed to release β-D-glucuronidase; also recorded: None of the synthetic peptides, nor native NAF, caused release of β-D-glucuronidase"}]}
{"substance": "FMLP", "values": [{"measurement": "DISTANCE MOVED (% of control)", "setting": "human neutrophils; FMLP alone, 5 × 10^-9 M", "value": "180 ± 17 % of control"}, {"measurement": "effect on cell migration (in words)", "setting": "human neutrophils", "value": "increase the cell migration"}, {"measurement": "release of β-D-glucuronidase from neutrophils (in words)", "setting": "[1]", "value": "stimulated release from the cells was possible"}]}
{"substance": "KELRCQCIKTYSKPFHPKFIKEL [NAF(3-25)]", "values": [{"measurement": "DISTANCE MOVED (% of control)", "setting": "human neutrophils; synthetic peptide alone, 1 × 10^-6 M in lower well", "value": "100 ± 6 % of control"}, {"measurement": "DISTANCE MOVED (% of control)", "setting": "[2]; [4]", "value": "132 ± 10 % of control"}, {"measurement": "INHIBITION (%) of NAF-induced neutrophil chemotaxis", "setting": "[2]; [4]", "value": "59 ± 13", "unit": "%"}, {"measurement": "INHIBITION (%) of NAF-induced neutrophil chemotaxis", "setting": "[2]; NAF 1 × 10^-8 M plus peptide 1 × 10^-6 M in lower well, listed as NAF (3-25)", "value": 59, "unit": "%"}, {"measurement": "DISTANCE MOVED (% of control)", "setting": "[2]; [5]", "value": "97 ± 11 % of control"}, {"measurement": "INHIBITION (%) of NAF-induced neutrophil chemotaxis", "setting": "[2]; [5]", "value": "104 ± 14", "unit": "%"}, {"measurement": "mean migration towards native NAF in the presence of peptide, above control migration", "setting": "[2]; native NAF 1 × 10^-8 M plus synthetic peptide(s) 1 × 10^-6 M", "value": 32, "unit": "%"}, {"measurement": "effect on the action of native NAF (in words)", "setting": "[2]; native NAF plus synthetic peptide", "value": "able to reduce neutrophil chemotaxis; also recorded: reduce the action of native NAF"}, {"measurement": "DISTANCE MOVED (% of control)", "setting": "[3]", "value": "190 ± 18 % of control"}]}
